Test results published in patent US20240148821A1, “PHARMACEUTICAL USE OF CYCLIC PEPTIDE COMPOUND” (CHUGAI SEIYAKU KABUSHIKI KAISHA, priority 2021, published 2024).
Numbered stars: 1 amine (or outer) side, 2 acyl side, 3 side chain; on linkers, the order of the positions; unused ones are H or OH. Bridge positions count the residues as written; N and C are the ends. Square brackets hold non-standard residues; d marks the D form. Peptide text beside a SMILES is read from it. * marks the point of attachment. hPhe(3,5-F2-4-CF3) = N[C@@H](CCc1cc(F)c(C(F)(F)F)c(F)c1)C(=O)O; hPhe(3-Cl-4-CF3) = N[C@@H](CCc1ccc(C(F)(F)F)c(Cl)c1)C(=O)O; hPhe(3-F,4-CF3) = N[C@@H](CCc1ccc(C(F)(F)F)c(F)c1)C(=O)O; NEtPhe(4-CF3) = CCN[C@@H](Cc1ccc(C(F)(F)F)cc1)C(=O)O; NMePhe(4-CF3) = CN[C@@H](Cc1ccc(C(F)(F)F)cc1)C(=O)O; hPhe(4-CF3) = N[C@@H](CCc1ccc(C(F)(F)F)cc1)C(=O)O; NMePhe(4-Cl) = CN[C@@H](Cc1ccc(Cl)cc1)C(=O)O; NMePhe(4-Me) = CN[C@@H](Cc1ccc(C)cc1)C(=O)O; NMedβ3hAla = C[C@H](CC(=O)[*:2])N(C)[*:1]; NGly(CH2(3-pyridyl)) = O=C(O)CNCc1cccnc1; NMeGly(cPent) = CN[C@H](C(=O)O)C1CCCC1; NMeCha = CN[C@@H](CC1CCCCC1)C(=O)O; Hyp = O=C(O)[C@@H]1C[C@@H](O)CN1; NMeChg = CN[C@H](C(=O)O)C1CCCCC1; NMeF = CN[C@@H](Cc1ccccc1)C(=O)O; NMeI = CC[C@H](C)[C@H](NC)C(=O)O; NMeD = CN[C@@H](CC(=O)O)C(=O)O; NMeL = CN[C@@H](CC(C)C)C(=O)O; NMeNva = CCC[C@H](NC)C(=O)O; NMeV = CN[C@H](C(=O)O)C(C)C; d(β3hA) = C[C@@H](N)CC(=O)O; Morpholide = C1CN(*)CCO1; NMeA = CN[C@@H](C)C(=O)O; Piperidide = C1CCN(*)CC1; Pyrrolidide = C1CCN(*)C1; Ac5c = NC1(C(=O)O)CCCC1; Aze = O=C(O)[C@@H]1CCN1; NBuGly = CCCCNCC(=O)O; Sar = CNCC(=O)O

Target: protein-protein interaction between Kras and SOS1 (biotin-tagged human Kras loaded with GDP, His-tagged human SOS1) (Homo sapiens (Human), UniProt P01116, G12D)
Test: Protein-protein interaction inhibition between Kras and SOS1 (KrasG12D-SOS PPI) using AlphaScreen;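 also: kras produced in E. coli, Ni-coupled donor beads and streptavidin acceptor beads, excitation 680 nm with emission detected at 520–620 nm via singlet oxygen transfer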
Assay type: biochemical
Conditions: not given

Structure (SMILES)	IC50
CC[C@H](C)[C@@H]1NC(=O)[C@H](CC(C)C)N(C)C(=O)C[C@@H](C(=O)N(C)C)N(C)C(=O)[C@H](C2CCCC2)N(C)C(=O)C2(CCCC2)NC(=O)[C@H](CC(=O)N2CCCCC2)N(C)C(=O)[C@H](CCc2ccc(C(F)(F)F)c(Cl)c2)NC(=O)CN(C)C(=O)[C@H](CC2CCCCC2)N(C)C(=O)[C@@H]2CCN2C(=O)[C@H](C)N(C)C1=O [Compound 2105] ([NMeL]I[NMeA][Aze][NMeCha][Sar][hPhe(3-Cl-4-CF3)][NMeD](Piperidide)[Ac5c][NMeGly(cPent)][NMeD]-NMe2; lactam N-11)	2.6 nM

Same assay, conditions: AlphaScreen; biotin-tagged human Kras loaded with GDP, His-tagged human SOS1; read-out: KRAS G12D-SOS PPI IC50

Structure (SMILES)	IC50
CCO[C@@H]1C[C@H]2C(=O)NC3(CCCC3)C(=O)N(C)[C@@H]([C@@H](C)CC)C(=O)N(C)[C@H](C)CC(=O)N(C)[C@@H](CC(C)C)C(=O)N[C@@H]([C@@H](C)CC)C(=O)N[C@@H](C)C(=O)N3CC[C@H]3C(=O)N(CC)[C@@H](Cc3ccc(C(F)(F)F)cc3)C(=O)N(C)CC(=O)N[C@@H](CCc3ccc(C(F)(F)F)c(Cl)c3)C(=O)N2C1 [Compound 673] (cyclo(A[Aze][NEtPhe(4-CF3)][Sar][hPhe(3-Cl-4-CF3)][Hyp](Et)[Ac5c][NMeI][NMedβ3hAla][NMeL]I))	11 nM
CC[C@H](C)[C@@H]1NC(=O)[C@H](CC(C)C)N(C)C(=O)C[C@@H](C(=O)N2CCCCC2)N(C)C(=O)[C@H](C2CCCC2)N(C)C(=O)C2(CCCC2)NC(=O)[C@@H]2CCCN2C(=O)[C@H](CCc2ccc(C(F)(F)F)c(F)c2)NC(=O)CN(C)C(=O)[C@H](Cc2ccc(C)cc2)N(C)C(=O)[C@@H]2CCN2C(=O)[C@H](C)N(C)C1=O [Compound 1008] ([NMeL]I[NMeA][Aze][NMePhe(4-Me)][Sar][hPhe(3-F,4-CF3)]P[Ac5c][NMeGly(cPent)][NMeD]-Piperidide; lactam N-11)	0.76 nM
CCCCN1CC(=O)N(C)[C@@H]([C@@H](C)CC)C(=O)N(C)[C@H](C(=O)N(C)C)CC(=O)N(C)[C@@H](CC(C)C)C(=O)N[C@@H]([C@@H](C)CC)C(=O)N(C)[C@@H](C)C(=O)N2CC[C@H]2C(=O)N(C)[C@@H](Cc2ccc(C)cc2)C(=O)N(C)CC(=O)N[C@@H](CCc2ccc(C(F)(F)F)c(Cl)c2)C(=O)N2CCC[C@H]2C1=O [Compound 215] ([NMeL]I[NMeA][Aze][NMePhe(4-Me)][Sar][hPhe(3-Cl-4-CF3)]P[NBuGly][NMeI][NMeD]-NMe2; lactam N-11)	29 nM
CC[C@H](C)[C@@H]1NC(=O)[C@H](CC(C)C)N(C)C(=O)C[C@@H](C(=O)N2CCCC2)N(C)C(=O)[C@H]([C@@H](C)CC)N(C)C(=O)C2(CCCC2)NC(=O)[C@@H]2CCCN2C(=O)[C@H](CCc2ccc(C(F)(F)F)c(F)c2)NC(=O)CN(C)C(=O)[C@H](CC2CCCCC2)N(C)C(=O)[C@@H]2CCN2C(=O)[C@H](C)N(C)C1=O [Compound 868] ([NMeL]I[NMeA][Aze][NMeCha][Sar][hPhe(3-F,4-CF3)]P[Ac5c][NMeI][NMeD]-Pyrrolidide; lactam N-11)	2.9 nM
CCO[C@@H]1C[C@H]2C(=O)NC3(CCCC3)C(=O)N(C)[C@@H](C3CCCCC3)C(=O)N(C)[C@H](C)CC(=O)N(C)[C@@H](CC(C)C)C(=O)N[C@@H]([C@@H](C)CC)C(=O)N(C)[C@@H](C)C(=O)N3CC[C@H]3C(=O)N(C)[C@@H](Cc3ccc(C(F)(F)F)cc3)C(=O)N(C)CC(=O)N[C@@H](CCc3cc(F)c(C(F)(F)F)c(F)c3)C(=O)N2C1 [Compound 486] (cyclo([Ac5c][NMeChg][NMedβ3hAla][NMeL]I[NMeA][Aze][NMePhe(4-CF3)][Sar][hPhe(3,5-F2-4-CF3)][Hyp](Et)))	4.8 nM
CC[C@H](C)[C@@H]1NC(=O)[C@H](C)N(C)C(=O)C[C@@H](C)NC(=O)[C@H](CC(C)C)N(C)C(=O)[C@H](Cc2ccccc2)N(C)C(=O)[C@H](C)N(C)C(=O)[C@H](CCc2ccc(C(F)(F)F)cc2)NC(=O)CN(C)C(=O)[C@H](Cc2ccc(Cl)cc2)N(C)C(=O)CN(C)C(=O)CN(C)C1=O [Compound 978] (cyclo(I[Sar][Sar][NMePhe(4-Cl)][Sar][hPhe(4-CF3)][NMeA][NMeF][NMeL][d(β3hA)][NMeA]))	170 nM
CCC[C@H]1C(=O)N2CC[C@H]2C(=O)N(C)[C@@H](CC2CCCCC2)C(=O)N(C)CC(=O)N[C@@H](CCc2ccc(C(F)(F)F)c(Cl)c2)C(=O)N2CCC[C@H]2C(=O)NC2(CCCC2)C(=O)N(C)[C@@H](C(C)C)C(=O)N(C)[C@H](C(=O)N2CCCCC2)CC(=O)N(C)[C@@H](CC(C)C)C(=O)N[C@@H]([C@@H](C)CC)C(=O)N1C [Compound 1601] ([NMeL]I[NMeNva][Aze][NMeCha][Sar][hPhe(3-Cl-4-CF3)]P[Ac5c][NMeV][NMeD]-Piperidide; lactam N-11)	22 nM
CC[C@H](C)[C@@H]1NC(=O)[C@H](C)N(C)C(=O)C[C@@H](C)N(C)C(=O)[C@H](CC(C)C)N(C)C(=O)[C@H](Cc2ccccc2)N(C)C(=O)[C@H](CC(C)C)NC(=O)[C@H](CCc2ccc(C(F)(F)F)cc2)NC(=O)CN(C)C(=O)[C@H](Cc2ccc(Cl)cc2)N(C)C(=O)CN(C)C(=O)CN(C)C1=O [Compound 927] (cyclo(I[Sar][Sar][NMePhe(4-Cl)][Sar][hPhe(4-CF3)]L[NMeF][NMeL][NMedβ3hAla][NMeA]))	23 nM
CC[C@H](C)[C@@H]1NC(=O)[C@H](C)N(C)C(=O)C[C@@H](C)NC(=O)[C@H](C2CCCC2)N(C)C(=O)C2(CCCC2)NC(=O)[C@@H]2CCCN2C(=O)[C@H](CCc2ccc(C(F)(F)F)c(Cl)c2)NC(=O)CN(C)C(=O)[C@H](Cc2ccc(C(F)(F)F)cc2)N(C)C(=O)[C@@H]2CCCN2C(=O)CN(C)C1=O [Compound 749] (cyclo([Ac5c][NMeGly(cPent)][d(β3hA)][NMeA]I[Sar]P[NMePhe(4-CF3)][Sar][hPhe(3-Cl-4-CF3)]P))	2.8 nM
CC[C@H](C)[C@@H]1NC(=O)[C@H](CC(C)C)N(C)C(=O)C[C@@H](C(=O)N2CCOCC2)N(C)C(=O)[C@H](C(C)C)N(C)C(=O)C2(CCCC2)NC(=O)[C@@H]2CCCN2C(=O)[C@H](CCc2ccc(C(F)(F)F)c(Cl)c2)NC(=O)CN(C)C(=O)[C@H](CC2CCCCC2)N(C)C(=O)[C@@H]2CCN2C(=O)CN(C)C1=O [Compound 1758] ([NMeL]I[Sar][Aze][NMeCha][Sar][hPhe(3-Cl-4-CF3)]P[Ac5c][NMeV][NMeD]-Morpholide; lactam N-11)	1.2 nM
CC[C@H](C)[C@@H]1NC(=O)[C@H](CC(C)C)N(C)C(=O)C[C@@H](C(=O)N2CCCCC2)N(C)C(=O)[C@H](C2CCCCC2)N(C)C(=O)C2(CCCC2)NC(=O)CN(Cc2cccnc2)C(=O)[C@H](CCc2ccc(C(F)(F)F)c(Cl)c2)NC(=O)CN(C)C(=O)[C@H](CC2CCCCC2)N(C)C(=O)CN(C)C(=O)CN(C)C1=O [Compound 2026] ([NMeL]I[Sar][Sar][NMeCha][Sar][hPhe(3-Cl-4-CF3)][NGly(CH2(3-pyridyl))][Ac5c][NMeChg][NMeD]-Piperidide; lactam N-11 (inferred); C-terminus assumed)	1.3 nM
CC[C@H](C)[C@@H]1NC(=O)[C@H](CC(C)C)N(C)C(=O)C[C@@H](C)N(C)C(=O)[C@H]([C@@H](C)CC)N(C)C(=O)C2(CCCC2)NC(=O)[C@@H]2CCCN2C(=O)[C@H](CCc2ccc(C(F)(F)F)c(Cl)c2)NC(=O)CN(C)C(=O)[C@H](Cc2ccc(C(F)(F)F)cc2)N(CC)C(=O)[C@@H]2CCN2C(=O)[C@H](C)N(C)C1=O [Compound 898] (cyclo([Ac5c][NMeI][NMedβ3hAla][NMeL]I[NMeA][Aze][NEtPhe(4-CF3)][Sar][hPhe(3-Cl-4-CF3)]P))	12 nM
